The values that follow come from patent US11952369B2 (Kadmon Corporation, LLC, priority 2022, dated 2024).

The term Ki denotes a dissociation constant, usually derived from enzyme kinetics or from competition with a known ligand. A higher Ki goes with lower affinity. The Tmax is the time from dosing to the highest level.

Values joined by “and” are separate entries in the source; they are usually repeats but may differ in a detail not shown here. Equal values may be shown once. Where a name gives a salt, the structure may show the parent alone. Marks after values point to notes of the source that are not given here.

In one series the target is T1, ROCK2 (Rattus norvegicus, UniProt Q62868).
T1 construct: Full length rat ROCK1 and ROCK2 proteins were isolated from various tumor cell lines or tissues by immunoabsorption; endogenous in cells
The experiment in a line: Inhibition of ROCK2 enzymatic activity, immunoabsorbed full length enzyme, S6 kinase substrate peptide, [γ33P]ATP. In kind it is biochemical. As to conditions: for Ki: ROCK2. On the procedure:
Full length rat ROCK1 and ROCK2 proteins were isolated from various tumor cell lines or tissues by immunoabsorption to 24-well microtiter plates pre-coated with antibodies specific for each isozyme. Reactions were initiated by the addition of S6 kinase substrate peptide, [γ33P]ATP, and study drug, and incubated at 37° C. for 20 minutes. Reactions were terminated by addition of phosphoric acid and the radioactivity was quantified using standard methods.

The nature of another series: Solubility. It counts as physicochemical. As to conditions: water.
A further series relates to patients with cGVHD. To be noted: cited from earlier work.
Series [1] is described as follows: Phase 1 study part 2: plasma and whole-blood PK after oral 200 mg [14C]-belumosudil capsule. In kind it is in vivo, human. To be noted: for F, AUCinf (bioavailability) / F, Cmax (bioavailability): oral [14C]-belumosudil 200-mg capsule vs IV [14C]-belumosudil dose of part 1; for half-life: 200 mg. On the procedure: (§1) This was a single-center, nonrandomized, open-label, 2-part study in 5 healthy male subjects aged 30 to 65 years. All oral doses were administered following an overnight fast and a standard breakfast on the day of dosing.
(§2) For the mass balance and metabolic profiling study (part 2), following at least a 7-day washout from part 1, subjects received a single oral dose of a 200 mg [^14C]-belumosudil capsule containing NMT 9.8 MBq [^14C]. This level of radioactivity was selected based on human dosimetry calculations conducted by Public Health England that determined a radioactive oral dose of NMT 9.8 MBq would be necessary to permit adequate metabolite profiling of key samples. Taking the part 1 microtracer dose into account, the total committed effective dose subjects received in the study was 3 mSv, which falls within the International Commission on Radiological Protection Guidelines for Category IIb studies. Additionally, to remain within the limit for radioactive dose approved by the UK Administration of Radioactive Substances Advisory Committee, the target-specific activity of [^14C]-belumosudil was set to 90% of the threshold radioactive dosing limit.
Whole-blood samples for total radioactivity and plasma samples for metabolite pro-filing and identification were collected before dosing and 1, 4, 8, 12, 24, 48, 72, 96, 120, 144, and 168 hours after dosing. […] Whole-blood samples for total radioactivity were collected into tripotassium ethylene-diaminetetraacetic acid tubes and stored at 2 to 8° C. pending analysis. […] (metabolite profiling samples).
(§3) Total radioactivity whole-blood, plasma, and urine samples were prepared for LSC by mixing with scintillation fluid. In addition, aliquots of whole blood were solubilized with AquiGest tissue solubilization fluid and plasma samples were mixed with 10 mM of phosphate-buffered saline. Urine and fecal samples were pooled per subject by time interval before analysis. In addition, fecal samples were combusted using an automatic sample oxidizer prior to LSC. Radioactivity in all samples was measured using an LSC with automatic external standard quench correction (2300TR, 2900TR, and 3100TR Tri-Carb, Scintillation Counters; PerkinElmer, Waltham, Massachusetts), with samples counted for 4 minutes. The LLOQ was considered to be twice the background value for samples of the same type (1.39 [urine], 23.9 [feces], 35.5 [whole blood], and 30.9 [plasma] ng equivalents [free base]/g or mL).
(§4) PK parameter estimates were used to calculate absolute bioavailability and metabolite-to-parent ratio.

Series [2] in a line: Phase 1 study part 1: absolute bioavailability, oral 200-mg tablet plus [14C]-belumosudil IV microtracer, plasma PK. It counts as in vivo, human. As to conditions: 100 μg IV; for half-life: iv. On the procedure:
as §1
(timed to occur at the expected maximum concentration [Cmax]). To determine absolute bioavailability, a microtracer dose was chosen as it negates the need for an IV formulation with good stability. Additionally, due to use of a very low dose, further nonclinical studies such as local tolerance and general toxicology studies were not warranted.
Blood samples for IV [^14C]-belumosudil PK analysis and total radioactivity were collected at −0.25, −0.16, −0.08, 0, 0.08, 0.16, 0.25, 0.5, 0.75, 1, 1.5, 2, 3, 4, 5, 6, 8, 10, 12, 22, 34, and 46 hours after the end of infusion (EOI). All samples were processed to plasma within 30 minutes of collection by centrifugation at 2000 g for 10 minutes at 4° C., and
Total [^14C]-belumosudil concentrations were determined by accelerator mass spectrometry (AMS). […] Selected samples were diluted with commercial plasma to ensure that concentrations would fall within the acceptable range for AMS analysis. The samples were converted to graphite through combustion to CO2 followed by reduction to graphite. The graphite targets were then analyzed by AMS (LLOQ of 0.00489, 0.00557, 0.00485, 0.00402, and 0.00372 ng equiv/mL for individual subjects). All ^14C data was background-corrected based on predose [^14C]-belumosudil concentrations.
Eluate fractions corresponding to [^14C]-belumosudil were collected before AMS analysis (LLOQ of 1.55 pg equiv/mL).
as §4

The nature of series [3]: Phase 1 study part 2: mass balance recovery of total radioactivity in excreta. It counts as in vivo, human. As to conditions: oral 200-mg [14C]-belumosudil capsule. How it is done:
as §2
Urine for total radioactivity and metabolite profiling and identification was collected before dosing (the first void of the day) and pooled from 0 to 6, 6 to 12, and 12 to 24 hours after dosing followed by daily (24-hour) collections until day 8/discharge. Urine samples were pooled per interval and stored at 2 to 8° C. pending analysis. Feces were collected from admission until before dosing and then daily (24-hour) collections until discharge. Fecal samples were pooled per time interval and stored at −20° C. pending analysis.
as §3

The mark [4] stands for this setting: arithmetic mean (standard deviation), Part 2, [14C]-belumosudil 200-mg capsule.
Setting [5] is: arithmetic mean (standard deviation), Part 2.
Setting [6] is: arithmetic mean (standard deviation), Part 2, total radioactivity, 200-mg capsule.
[7] abbreviates: geometric mean (geometric CV %), Part 2, [14C]-belumosudil 200-mg capsule.
[8] abbreviates: geometric mean (geometric CV %), Part 2.
Setting [9] is: geometric mean (geometric CV %), Part 2, total radioactivity, 200-mg capsule.
Setting [10] is: arithmetic mean (standard deviation), Part 1, [14C]-belumosudil.
[11] abbreviates: arithmetic mean (standard deviation), Part 1, total radioactivity.
The mark [12] stands for this setting: geometric mean (geometric CV %), Part 1, [14C]-belumosudil.
Where [13] appears, read: geometric mean (geometric CV %), Part 1, total radioactivity.

T1 sequence (Q62868 whole entry): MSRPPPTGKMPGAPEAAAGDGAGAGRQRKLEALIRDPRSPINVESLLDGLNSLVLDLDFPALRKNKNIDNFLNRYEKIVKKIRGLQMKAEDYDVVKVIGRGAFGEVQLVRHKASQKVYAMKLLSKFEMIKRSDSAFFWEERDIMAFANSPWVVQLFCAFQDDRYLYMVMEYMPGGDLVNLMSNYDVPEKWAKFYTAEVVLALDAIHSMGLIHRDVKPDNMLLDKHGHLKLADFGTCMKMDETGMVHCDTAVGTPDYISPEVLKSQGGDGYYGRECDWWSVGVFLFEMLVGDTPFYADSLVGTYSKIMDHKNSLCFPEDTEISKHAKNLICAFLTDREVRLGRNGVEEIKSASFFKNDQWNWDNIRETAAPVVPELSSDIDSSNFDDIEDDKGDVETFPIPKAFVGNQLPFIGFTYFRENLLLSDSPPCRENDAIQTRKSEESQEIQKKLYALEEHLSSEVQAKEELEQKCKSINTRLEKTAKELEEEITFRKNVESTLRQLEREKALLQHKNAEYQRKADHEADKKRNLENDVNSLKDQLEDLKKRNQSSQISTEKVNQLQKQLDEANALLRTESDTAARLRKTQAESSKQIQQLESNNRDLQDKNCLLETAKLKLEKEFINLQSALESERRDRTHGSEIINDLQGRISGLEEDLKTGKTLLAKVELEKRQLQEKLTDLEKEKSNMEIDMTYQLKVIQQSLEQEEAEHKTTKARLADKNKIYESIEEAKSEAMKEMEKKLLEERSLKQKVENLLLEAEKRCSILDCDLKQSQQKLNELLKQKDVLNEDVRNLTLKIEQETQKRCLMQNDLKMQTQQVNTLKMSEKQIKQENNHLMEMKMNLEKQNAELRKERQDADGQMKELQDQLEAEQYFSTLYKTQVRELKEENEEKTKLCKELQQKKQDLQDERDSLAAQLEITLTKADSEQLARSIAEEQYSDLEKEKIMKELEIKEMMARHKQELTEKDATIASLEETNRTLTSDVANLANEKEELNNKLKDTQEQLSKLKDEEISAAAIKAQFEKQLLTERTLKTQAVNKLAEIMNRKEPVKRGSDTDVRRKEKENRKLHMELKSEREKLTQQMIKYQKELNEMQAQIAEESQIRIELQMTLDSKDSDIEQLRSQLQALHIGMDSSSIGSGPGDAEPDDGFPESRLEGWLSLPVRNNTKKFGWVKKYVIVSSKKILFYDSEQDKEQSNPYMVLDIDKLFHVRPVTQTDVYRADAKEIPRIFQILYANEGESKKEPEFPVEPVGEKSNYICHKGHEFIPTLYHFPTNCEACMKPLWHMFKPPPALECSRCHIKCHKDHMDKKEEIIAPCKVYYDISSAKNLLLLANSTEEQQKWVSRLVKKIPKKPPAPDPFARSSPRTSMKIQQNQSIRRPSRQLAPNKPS

On ROCK2, `CC(N)C1CCC(C(=O)Nc2ccncc2)CC1` (centres unmarked) [Y-27362] registered an inhibition constant (Ki) of 45 ± 5 nM.

At ROCK2, `O=C(O)COc1cccc(-c2nc(Nc3ccc4[nH]ncc4c3)c3ccccc3n2)c1` [KD025m2, 2-(3-(4-(1H-indazol-5-ylamino)quinazolin-2-yl)phenoxy)acetic acid] had a Ki of 338 ± 55 nM. The “inhibition of ROCK2 (Ki) relative to belumosudil” value on ROCK2 (fold lower inhibition than belumosudil) was “approximately 6 fold”.

As to `CC(C)NC(=O)COc1cccc(-c2nc(Nc3ccc4[nH]ncc4c3)c3ccccc3n2)c1` [Belumosudil mesylate, 2-{3-[4-(1H-indazol-5-ylamino)-2-quinazolinyl]phenoxy}-N-(propan-2-yl) acetamide methanesulfonate (1:1)], the solubility in water entry in the series “Solubility” is reported as “practically insoluble in water”.

`C=CC(=O)N1CCC[C@@H](n2nc(-c3ccc(Oc4ccccc4)cc3)c3c(N)ncnc32)C1` [ibrutinib]: the “discontinuation rate because of treatment-emergent adverse events (TEAEs)” value in the series on patients with cGVHD is recorded as 43%.

`CC(C)NC(=O)COc1cccc(-[14c]2nc(Nc3ccc4[nH]ncc4c3)c3ccccc3n2)c1` [[^14C]-Belumosudil]: in series [1] (setting [4]), the AUCextrap is 3.08 (2.16) %, the AUCinf is on record as 8490 (2680) ng or ng equiv × h/mL and the “Clearanance (apparent clearance)” value was 435 (173) mL/min. Besides, in series [1] (setting [5]), the “F, AUCinf (bioavailability)” value is 63.8 (15.7)^b % and the “F, Cmax (bioavailability)” value was 63.8 (15.7)^b %. For the same molecule, in series [1] (setting [6]), the AUCextrap was 10.1 (2.79) % and the Clearanance is recorded as 126 (59.7) mL/min. In addition, in series [1] (setting [7]), the AUCextrap is listed as 2.46 (92.9); %, the AUCinf is given as 8100 (37.0); ng or ng equiv × h/mL, the AUClast is 7850 (39.3); ng or ng equiv × h/mL and the “Clearanance (apparent clearance)” value is 412 (37.0); mL/min. Besides, the Cmax in series [1] (setting [7]) is 1680 (32.1); ng or ng equiv/mL. Besides, in series [1] (setting [8]), the “F, AUCinf (bioavailability)” value is 62.2 (26.6)^b; % and the “F, Cmax (bioavailability)” value is listed as 62.2 (26.6)^b; %. In series [1] (setting [9]), the AUCextrap is recorded as 9.76 (31.7); % and the Clearanance is recorded as 118 (46.1); mL/min. Also, in series [1] (male, human, plasma, oral, arithmetic mean (standard deviation), Part 2, [14C]-belumosudil 200-mg capsule), the half-life was 5.39 h. In series [1] (male, human, plasma, oral, geometric mean (geometric CV %), Part 2, [14C]-belumosudil 200-mg capsule), the half-life is 5.11 h. For the same molecule, the Tmax in series [1] (male, human, plasma, oral, median (min-max), Part 2 (n = 5), [14C]-belumosudil 200-mg capsule) was 2 h. In addition, in series [2] (setting [10]), the AUCextrap is 0.63 (0.46) %, the AUCinf is 6720 (2220) ng or ng equiv × h/mL, the AUClast is on record as 6680 (2220) ng or ng equiv × h/mL and the Clearanance is 264 (64.3) mL/min. Besides, in series [2] (setting [10]), the Cmax is 4530 (830) ng or ng equiv/mL; the Volume is reported as 138 (59.8) L; the “Volume, ss” value is listed as 54.1 (10.7) L. Further, in series [2] (setting [11]), the AUCextrap is reported as 8.48 (2.84) %, the Clearanance was 122 (29.0) mL/min and the Volume is reported as 194 (53.2) L. In addition, in series [2] (setting [12]), the AUCextrap is listed as 0.53 (66.3); %, the AUCinf is on record as 6480 (29.3); ng or ng equiv × h/mL, the AUClast was 6440 (29.5); ng or ng equiv × h/mL and the Cmax was 4480 (18.0); ng or ng equiv/mL. For the same molecule, in series [2] (setting [12]), the “T1/2 (terminal half-life)” value is on record as 5.86 (35.8); h; the Volume is 130 (38.9); L; the “Volume, ss” value is given as 53.2 (20.6); L. In series [2] (setting [13]), the AUCextrap is reported as 8.09 (35.4); %; the Clearanance is 120 (23.7); mL/min; the Volume is recorded as 186 (35.4); L; the “Volume, ss” value is 98.2 (23.4) L. Moreover, the time of peak concentration (Tmax) in series [2] (male, human, plasma, 100 ug, median (min-max), Part 1 (n = 5), [14C]-belumosudil) stood at 0.25 h. In series [2] (male, human, plasma, 100 ug, arithmetic mean (standard deviation), Part 1, [14C]-belumosudil, read-out: T1/2 (converted)), the half-life was 6.15 h. In series [2] (male, human, plasma, 100 ug, geometric mean (geometric CV %), Part 1, [14C]-belumosudil, read-out: T1/2 (terminal half-life) (converted)), the half-life is 5.9 h. Besides, in series [3], the “radioactivity recovered in excreta” value came out at 88.5%; the “radiolabeled dose recovered in urine” value is on record as less than 5%; the “total radioactivity recovered in feces” value is 84.6% and 85%; the “total radioactivity recovered in feces within the first 24 hours after dosing” value is on record as “≈ 27.4%”. In series [3], the “total radioactivity recovered in urine within the first 24 hours after dosing” value is listed as 3.8%.
